In US7718655B2, “Trisubstituted triazine compounds, and methods for making and using the compounds, which have antitubulin activity” (New York University, priority 2001, dated 2010):
Where two headings read alike, the source gives them in different places.

Columns and labels:
tubulin = test system: T1, tubulin; test: In vitro microtubule disassembly assay; assay type: biochemical; conditions: tubulin and rhodamine-tubulin, 37° C. for 20 minutes, fluorescence microscopy
T1 construct: fused on or other part: rhodamine label on part of the tubulin (a fluorescent tracer, not a protein)
Description: In Vitro Microtubule Disassembly Assay
Reagent A was made by mixing 250 mg/25 mL tubulin and rhodamine-tubulin (60 mg/6 mL), purchased from Cytoskeleton, with 20 mL, 10 mM GTP at 0° C. Reagent B was made by dissolving the compounds (various concentrations, 2 mL in DMSO) in 2×assay buffer (200 mL, 80 mM K PIPES (pH 7.5), 5 mM MgCl2, 1 mM EDTA). Two mL of Reagent A and two mL of Reagent B were mixed in a […] and incubated at 37° C. for 20 minutes. Then, 100 uL of 60% glycerol was added and mixed by gently pipetting the mixture up and down three times. Two uL of the mixture was placed onto a glass slide, covered with a coverslip, and observed by fluorescence microscopy (400×magnification, rhodamine channel).

[1] = test system: Human U937 leukemia cells; test: Growth inhibition of cancer cells (MTS); assay type: cell-based; conditions: 490 nm, read-out: IC50 (Cancer cell growth inhibition)
Description: Growth Inhibition of Cancer Cells
Human U937 leukemia cells were obtained from ATCC. Cells were grown in proliferation media (RPMI-1640 plus 2.38 g/L HEPES, 4.5 g/L glucose, 1.5 g/L NaHCO3, 0.3 g/L Glutamine, 0.11 g Na Pyruvate) plus 20% fetal calf serum. Cells were kept at 37° C., 5% CO2, at a concentration of 0.2-1×10^6 cells/ml. To a 100 μl cell suspension in 96-well plate (1×10^4 cells/well), 20 μl of MTS tetrazolium reagent solution (Promega) in RPMI -1640 medium was added for 2 hours at 37° C. in a 5% CO2 atmosphere. After the incubation period, the reduced formazan product was measured at 490 nm using a plate reader.

[2] = Homo sapiens, U-937, MTS tetrazolium reagent

IC50 (tubulin) | IC50 [1, 2] | IC50 ([1]; MTS tetrazolium reagent) | Structure (SMILES)
< 20 µM | 20 µM | – | COc1ccc(CNc2nc(NCCO)nc(NCc3ccc(OC)cc3)n2)cc1 [Compound S34]
< 20 µM | 25 µM | – | CCC(C)Nc1nc(NCc2ccc(OC)cc2)nc(NCc2ccc(OC)cc2)n1 (stereo not drawn) [Compound S25]
< 20 µM | 10 µM | – | COc1ccc(CNc2nc(NCc3ccc(OC)cc3)nc(NCC3CCCO3)n2)cc1 (stereo not drawn) [Compound S17]
< 20 µM | 5 µM | – | COc1ccc(CNc2nc(NCc3ccc(OC)cc3)nc(NC3CCCCC3)n2)cc1 [Compound S77, N-Cyclohexyl-N′,N″-bis-(4-methoxybenzyl)-[1,3,5]Triazine-2,4,6-triamine]
< 20 µM | 18 µM | – | CNc1nc(NCc2ccc(OC)cc2)nc(NCc2ccc(OC)cc2)n1 [Compound S33]
< 20 µM | 20 µM | – | CCNc1nc(NCc2ccc(OC)cc2)nc(NCc2ccc(OC)cc2)n1 [Compound S51]
< 20 µM | 25 µM | – | COc1ccc(CNc2nc(NCc3ccc(OC)cc3)nc(NC3CC3)n2)cc1 [Compound S22]
< 20 µM | – | 12 µM | COc1ccc(CNc2nc(NCc3ccc(OC)cc3)nc(N3CCOCC3)n2)cc1 [Compound S78, N′,N″-Bis-(4-methoxybenzyl)-6-morpholin-4-yl-[1,3,5]Triazine-2,4-diamine]
8 µM | 10 µM | – | COc1ccc(CNc2nc(NCc3ccc(OC)cc3)nc(NC3CCCC3)n2)cc1 [Compound S1]
< 20 µM | 9 µM | – | COc1ccc(CNc2nc(NCc3ccc(OC)cc3)nc(NC(C)C)n2)cc1 [Compound S84, N-Isopropyl-N′,N″-bis-(4-methoxybenzyl)-[1,3,5]Triazine-2,4,6-triamine]
< 20 µM | 12 µM | – | COc1ccc(CNc2nc(NCc3ccc(OC)cc3)nc(NC3CCC3)n2)cc1 [Compound S43]

Structure (SMILES) | IC50 (tubulin) | IC50 [1, 2] | IC50 ([1]; MTS tetrazolium reagent)
COc1ccc(CNc2nc(NCc3ccc(OC)c(OC)c3)nc(NC3CCCCC3)n2)cc1 [Compound S53] | 2.5 µM | 1 µM | –
